# PMC9981504 (Journal of Biological Inorganic Chemistry, 2023)
# Target: T1, soybean lipoxygenase (Glycine max, UniProt P08170)
# T1 construct: gene LOX1.1
# Test: UV enzyme assay at […] nm, % inhibition at […]
# Type: biochemical
# Settings: read-out: LOX % 100 μM or IC50
# T1 sequence (P08170 whole entry): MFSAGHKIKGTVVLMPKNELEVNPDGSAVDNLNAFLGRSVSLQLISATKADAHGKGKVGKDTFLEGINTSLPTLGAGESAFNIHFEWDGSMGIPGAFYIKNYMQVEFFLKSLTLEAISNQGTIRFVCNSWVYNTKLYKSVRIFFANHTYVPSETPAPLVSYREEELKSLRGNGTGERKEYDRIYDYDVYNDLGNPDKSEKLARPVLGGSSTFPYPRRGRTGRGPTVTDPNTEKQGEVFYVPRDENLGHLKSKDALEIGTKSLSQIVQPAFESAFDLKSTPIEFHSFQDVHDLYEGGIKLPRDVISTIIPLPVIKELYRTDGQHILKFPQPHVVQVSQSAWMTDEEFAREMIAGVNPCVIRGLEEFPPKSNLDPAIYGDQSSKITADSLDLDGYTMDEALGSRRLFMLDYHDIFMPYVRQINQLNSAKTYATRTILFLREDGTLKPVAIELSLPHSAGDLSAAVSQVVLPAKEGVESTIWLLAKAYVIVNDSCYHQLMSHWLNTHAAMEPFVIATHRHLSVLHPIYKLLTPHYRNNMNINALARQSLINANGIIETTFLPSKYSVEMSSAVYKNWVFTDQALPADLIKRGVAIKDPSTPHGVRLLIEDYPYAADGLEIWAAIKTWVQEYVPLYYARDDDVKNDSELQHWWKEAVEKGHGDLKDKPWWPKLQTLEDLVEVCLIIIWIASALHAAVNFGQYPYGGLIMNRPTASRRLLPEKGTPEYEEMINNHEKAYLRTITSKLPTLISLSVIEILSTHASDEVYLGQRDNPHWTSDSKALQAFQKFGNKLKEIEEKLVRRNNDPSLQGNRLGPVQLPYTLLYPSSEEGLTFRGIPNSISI
structure (smiles),measurement,value
"O=c1c(O)c(-c2ccc(O)cc2)oc2cc(O)ccc12 [resokaempferol, 3,7,4΄-trihydroxyflavone]",inhibition at 100 µM,90%
